Assay results taken from patent US20090297576A1, “Local Delivery of PAR-1 Antagonists to Treat Vascular Complications” (MEDTRONIC VASCULAR, INC., priority 2008, published 2009).

Experiment: solubility of SCH-530348 in the coating solvent ethanol
Type: physicochemical
Settings: stent coating solution
Protocol: In the following Example, ethanol is chosen as the solvent of choice. The PAR-1 antagonist is SCH-530348. […] Persons having ordinary skill in the art of polymer chemistry can easily pair the appropriate solvent system to the polymer-drug combination and achieve optimum results with no more than routine experimentation.
250 mg of SCH-530348 is carefully weighed and added to a small neck glass bottle containing 2.8 ml of ethanol. The SCH-530348-ethanol suspension is then thoroughly mixed until a clear solution is achieved.

solubility in ethanol: freely soluble
SMILES: CCOC(=O)N[C@@H]1CC[C@@H]2[C@@H](C1)C[C@H]1C(=O)O[C@H](C)[C@H]1[C@H]2/C=C/c1ccc(-c2cccc(F)c2)cn1 [SCH-530348]
